According to patent US10172961B2 (priority 2014, dated 2019):

Legend:
in vivo = settings: rat, inhaled or intranasal, 6 mg/kg
[1] = rat, in vivo

Row | SMILES | level at time molar at 8 h (in vivo) | presence in the brain / CNS localization [1] | presence in the serum [1]
1 | CC[C@H](C)[C@H](NC(=O)[C@H](C)NC(=O)[C@H](CC(N)=O)NC(=O)CNC(=O)[C@H](CC(C)C)NC(=O)[C@H](CC(N)=O)NC(=O)[C@@H](NC(=O)CNC(=O)[C@@H](NC(=O)[C@H](CC(=O)O)NC(=O)[C@H](CC(C)C)NC(=O)[C@H](CCCNC(=N)N)NC(=O)[C@H](CCC(=O)O)NC(=O)[C@H](CC(C)C)NC(=O)[C@H](CO)NC(=O)[C@@H](NC(=O)[C@@H]1CCCN1C(=O)[C@@H]1CCCN1C(C)=O)[C@@H](C)CC)C(C)C)[C@@H](C)O)C(=O)N[C@@H](C)C(=O)N[C@@H](CCCCN)C(=O)N[C@@H](CC(C)C)C(=O)N[C@@H](CCC(=O)O)C(=O)N[C@@H](CC(=O)O)C(=O)N[C@@H](C)C(=O)N[C@@H](CCCCN)C(=O)N[C@@H](CCC(=O)O)C(=O)N[C@@H](CC(C)C)C(=O)N[C@@H](CC(C)C)C(=O)N[C@@H](CCC(=O)O)C(=O)N[C@@H](CO)C(=O)N[C@@H](CO)C(=O)N[C@@H](CC(=O)O)C(=O)N[C@@H](CCC(N)=O)C(=O)N[C@H](C(=O)N[C@@H](CC(C)C)C(=O)N[C@@H](CCCNC(=N)N)C(=O)NCC(=O)N[C@@H](CO)C(=O)NCC(=O)N[C@@H](CO)C(=O)NCC(=O)N[C@@H](CSC1=CC(=O)N(CCCC(=O)NCCOCCOCCOCCOCCC(=O)NCCN(CCNC(=O)CCOCCOCCOCCOCCNC(=O)CCCN2C(=O)C=C(SC[C@H](NC(=O)CNC(=O)[C@H](CO)NC(=O)CNC(=O)[C@H](CO)NC(=O)CNC(=O)[C@H](CCCNC(=N)N)NC(=O)[C@H](CC(C)C)NC(=O)[C@@H](NC(=O)[C@H](CCC(N)=O)NC(=O)[C@H](CC(=O)O)NC(=O)[C@H](CO)NC(=O)[C@H](CO)NC(=O)[C@H](CCC(=O)O)NC(=O)[C@H](CC(C)C)NC(=O)[C@H](CC(C)C)NC(=O)[C@H](CCC(=O)O)NC(=O)[C@H](CCCCN)NC(=O)[C@H](C)NC(=O)[C@H](CC(=O)O)NC(=O)[C@H](CCC(=O)O)NC(=O)[C@H](CC(C)C)NC(=O)[C@H](CCCCN)NC(=O)[C@H](C)NC(=O)[C@@H](NC(=O)[C@H](C)NC(=O)[C@H](CC(N)=O)NC(=O)CNC(=O)[C@H](CC(C)C)NC(=O)[C@H](CC(N)=O)NC(=O)[C@@H](NC(=O)CNC(=O)[C@@H](NC(=O)[C@H](CC(=O)O)NC(=O)[C@H](CC(C)C)NC(=O)[C@H](CCCNC(=N)N)NC(=O)[C@H](CCC(=O)O)NC(=O)[C@H](CC(C)C)NC(=O)[C@H](CO)NC(=O)[C@@H](NC(=O)[C@@H]3CCCN3C(=O)[C@@H]3CCCN3C(C)=O)[C@@H](C)CC)C(C)C)[C@@H](C)O)[C@@H](C)CC)[C@@H](C)CC)C(N)=O)C2=O)CCOC2CCC3(C)C(=CCC4C3CCC3(C)C(C(C)CCCC(C)C)CCC43)C2)C1=O)C(N)=O)[C@@H](C)CC (stereo partly drawn) [MV HRC4] | ~400 nM | a small fraction of the administered peptides was present | a small fraction of the administered peptides was present
2 | CC[C@H](C)[C@H](NC(=O)[C@H](C)NC(=O)[C@H](CC(N)=O)NC(=O)CNC(=O)[C@H](CC(C)C)NC(=O)[C@H](CC(N)=O)NC(=O)[C@@H](NC(=O)CNC(=O)[C@@H](NC(=O)[C@H](CC(=O)O)NC(=O)[C@H](CC(C)C)NC(=O)[C@H](CCCNC(=N)N)NC(=O)[C@H](CCC(=O)O)NC(=O)[C@H](CC(C)C)NC(=O)[C@H](CO)NC(=O)[C@@H](NC(=O)[C@@H]1CCCN1C(=O)[C@@H]1CCCN1C(C)=O)[C@@H](C)CC)C(C)C)[C@@H](C)O)C(=O)N[C@@H](C)C(=O)N[C@@H](CCCCN)C(=O)N[C@@H](CC(C)C)C(=O)N[C@@H](CCC(=O)O)C(=O)N[C@@H](CC(=O)O)C(=O)N[C@@H](C)C(=O)N[C@@H](CCCCN)C(=O)N[C@@H](CCC(=O)O)C(=O)N[C@@H](CC(C)C)C(=O)N[C@@H](CC(C)C)C(=O)N[C@@H](CCC(=O)O)C(=O)N[C@@H](CO)C(=O)N[C@@H](CO)C(=O)N[C@@H](CC(=O)O)C(=O)N[C@@H](CCC(N)=O)C(=O)N[C@H](C(=O)N[C@@H](CC(C)C)C(=O)N[C@@H](CCCNC(=N)N)C(=O)NCC(=O)N[C@@H](CO)C(=O)NCC(=O)N[C@@H](CO)C(=O)NCC(=O)N[C@@H](CSC1=CC(=O)N(CCCC(=O)NCCOCCOCCOCCOCCC(=O)NCCN(CCNC(=O)CCOCCOCCOCCOCCNC(=O)CCCN2C(=O)C=C(SC[C@H](NC(=O)CNC(=O)[C@H](CO)NC(=O)CNC(=O)[C@H](CO)NC(=O)CNC(=O)[C@H](CCCNC(=N)N)NC(=O)[C@H](CC(C)C)NC(=O)[C@@H](NC(=O)[C@H](CCC(N)=O)NC(=O)[C@H](CC(=O)O)NC(=O)[C@H](CO)NC(=O)[C@H](CO)NC(=O)[C@H](CCC(=O)O)NC(=O)[C@H](CC(C)C)NC(=O)[C@H](CC(C)C)NC(=O)[C@H](CCC(=O)O)NC(=O)[C@H](CCCCN)NC(=O)[C@H](C)NC(=O)[C@H](CC(=O)O)NC(=O)[C@H](CCC(=O)O)NC(=O)[C@H](CC(C)C)NC(=O)[C@H](CCCCN)NC(=O)[C@H](C)NC(=O)[C@@H](NC(=O)[C@H](C)NC(=O)[C@H](CC(N)=O)NC(=O)CNC(=O)[C@H](CC(C)C)NC(=O)[C@H](CC(N)=O)NC(=O)[C@@H](NC(=O)CNC(=O)[C@@H](NC(=O)[C@H](CC(=O)O)NC(=O)[C@H](CC(C)C)NC(=O)[C@H](CCCNC(=N)N)NC(=O)[C@H](CCC(=O)O)NC(=O)[C@H](CC(C)C)NC(=O)[C@H](CO)NC(=O)[C@@H](NC(=O)[C@@H]3CCCN3C(=O)[C@@H]3CCCN3C(C)=O)[C@@H](C)CC)C(C)C)[C@@H](C)O)[C@@H](C)CC)[C@@H](C)CC)C(N)=O)C2=O)CCOc2c(C)c(C)c3c(c2C)CC[C@](C)(CCC[C@@H](C)CCC[C@@H](C)CCCC(C)C)O3)C1=O)C(N)=O)[C@@H](C)CC [HRC4-tocopherol] | ~2000 nM | no CNS localization | minimal presence in the serum
